Experimental data reported in PMC4554983 (Bioorganic & medicinal chemistry, 2015).
Values after ≈ are worked out from the molar mass of the structure shown. Values belong to the compound of their own block, whether it stands above or below them.

What was measured:
[1] = system: Candida albicans (WTBF-50); assay: Antifungal activity assay; assay type: cell-based
[2] = system: Cryptococcus neoformans Cn18 (WTBF-106); assay: Antifungal activity assay; assay type: cell-based; conditions: MIC ratio versus P2
[3] = system: C. albicans; assay: Time kill assays; assay type: cell-based, Candida albicans

- MIC ([1]; Candida albicans): 0.125 µg/mL (≈ 0.135 µM)
Compound: C[C@@H]1[C@H](O)[C@@H](C)/C=C/C=C/C=C/C=C/C=C/C=C/C=C/[C@H](O[C@@H]2O[C@H](C)[C@@H](O)[C@H](N)[C@@H]2O)C[C@@H]2O[C@](O)(C[C@@H](O)C[C@@H](O)[C@H](O)CC[C@@H](O)C[C@@H](O)CC(=O)O[C@H]1C)C[C@H](O)[C@H]2C(=O)O [AMB, Amphotericin B, reference compound]

Compound: CC1CNC(c2ccc3cc(-c4ccc(-c5cc6ccc(C7=NC(C)CN7)cc6[nH]5)cc4)[nH]c3c2)=N1.O=C(O)C(F)(F)F (centres unmarked) [Compound P9]
- fold more potent than P2 against Cryptococcus neoformans [2]: 6 fold

Compound: O=C(O)C(F)(F)F.c1cc2cc(-c3ccc(-c4cc5ccc(C6=NCCCN6)cc5[nH]4)cc3)[nH]c2cc1C1=NCCCN1 [Compound P10]
- time to reduce viable cells below the limit of detection ([3]; 2× the MIC): ≤ 8 h

Compound: CC(=O)O.c1cc2cc(-c3ccc(-c4ccn5cc(C6=NCCCN6)nc5c4)cc3)[nH]c2cc1C1=NCCCN1 [Compound P33]
- fold more potent than P35 against Candida spp. ([1]; MIC ratio versus P35): > 10 fold

Compound: CC(=O)O.c1cc2cc(-c3ccc(-c4ccc5cc(C6=NCCCN6)oc5c4)cc3)[nH]c2cc1C1=NCCCN1 [Compound P34]
- fungicidal activity relative to positive control ([3]; 2× the MIC and 4× the MIC, versus AMB at 4× the MIC): comparable to that of AMB
